In patent publication US8410056B2, “Pro-oxidant anti-cancer compounds” (priority 2006, dated 2013):
Where a name gives a salt, the structure may show the parent alone.

Columns and labels:
Jurkat, U937, Meso-2 = conditions: Tomic-Vatic et al, 2005, cited from earlier work; for IC50: Jurkat, U937, Meso-2; for pro-apoptotic activity: ester bond replaced by amide bond
MCF7 = conditions: cited from earlier work
mesothelioma = assay: Clinical study, patient with mesothelioma; assay type: in vivo; conditions: same patient
Method: α-TOS was used to treat mesothelioma in a human cancer patient. […] The blood plasma levels were monitored and levels of α-TOS in the plasma attained 50 μM over prolonged periods during continual application. This is more than sufficient to kill the cancer cells based on in vitro analysis.
The patient was originally receiving high dose opiate medications, neuropathic pain medications, home oxygen, and was predicted to have a life expectancy of 6-8 weeks. After treatment with α-TOS, the patient no longer required analgesia or oxygen.
In December 2005, the patient started receiving transdermal delivery of α-TOS, prepared in a base cream and solubilised with dimethyl sulfoxide (DMSO).
In April 2007, therapy with α-TOS was commenced using a modified formulation mixed in a lipodermal cream (see below). […] In addition, a palpable lesion was visible growing out between the ribs and the right anterior chest wall. The patient was in very poor condition with a low ECOG- no CT scan could be performed at the time of commencing the α-TOS treatment because the patient was too moribund.
α-TOS formulation: 500 gms of Lipoderm cream plus 60 gms α-TOS compounded by the hospital pharmacy. About 30 gms of compounded mix was administered every few days, and the upper body was wrapped in plastic film (“saran wrap”) to improve absorption.

[1] = target: T1, α-tocopherol transfer protein (α-TTP) (Rattus norvegicus, UniProt P41034); conditions: α-tocopherol 100%; Hosomi et al, 1997; cited from earlier work
T1 sequence (P41034 1-278): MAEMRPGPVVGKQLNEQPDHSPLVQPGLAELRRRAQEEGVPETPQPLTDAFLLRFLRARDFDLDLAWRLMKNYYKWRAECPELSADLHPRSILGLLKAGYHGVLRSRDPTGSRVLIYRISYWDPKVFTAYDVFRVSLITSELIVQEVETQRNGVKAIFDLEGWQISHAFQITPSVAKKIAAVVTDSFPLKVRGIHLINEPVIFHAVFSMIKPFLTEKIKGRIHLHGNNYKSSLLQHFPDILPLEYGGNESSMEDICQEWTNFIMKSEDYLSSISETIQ

[2] = system: Jurkat, HBT11, MCF7, MCF7-C3; conditions: Birringer et al, cited from earlier work; for pro-apoptotic activity: compared with α-TOS and isomers; for IC50: Jurkat, HBT11, MCF7, MCF7-C3, 2003
[3] = target: T2, complex II/SDH-dependent activity in NeuTL cells (Mus musculus, UniProt Q8K2B3+Q9CQA3+Q9CXV1+Q9CZB0); assay: MTT reduction assay of complex II/SDH activity in whole cells; assay type: cell-based, murine; conditions: absence of added succinate; 4 h
T2 construct: For specifically measuring complex II activity in whole cells; endogenous in cells; host or cells: NeuTL murine breast cancer cells
Method: MTT assay. MTT solutions were prepared immediately before use by dissolving 2.5 mg/ml 3-(4,5-dimethyl[…] (MTT) (Sigma) in PBS alone or phenol red-free RPMI medium containing 20 mM succinic acid, pH 7.4. Stock solutions of 3-nitropropionic acid (3NPA) in ethanol, thenoyltrifluoroacetone (TTFA) in DMSO, 3-BP in PBS, α-TOS in DMSO, and MitoQ (Alleva et al, 2003, James et al, 2005) in ethanol were prepared. The drugs were tested on NeuTL cells cultured in exponential growth phase in 96-well microtitre plates using 4-8 replicate wells per dilution assayed. To assess the ability of MitoQ to restore MTT reduction, cells were pre-incubated for 60 min with 2 or 5 μM MitoQ. Final concentrations of ethanol or DMSO in cultures were ≦0.1%. Treated and control cells were allowed to reduce MTT to blue formazan crystals for 2 or 4 h at 37° C. and 5% CO2. After incubation, culture supernatants were removed except for 30 μl, before the formazan crystals were solubilized by addition of 150 μl DMSO, and absorbance values were measured at 570 nm using a Fluorostar Optima plate reader.
To this end, the present inventors investigated whether α-TOS interferes with UbQ binding in complex II. For specifically measuring complex II activity in whole cells, a short-term (1-2 h) assay was used based on the reduction of the tetrazolium salt, MTT (Maehara et al, 1988). […] For this, oxidative respiration of murine NeuTL breast cancer cells was sustained on high levels of succinate (20 mM), thereby promoting the SDH activity of complex II (Maehara et al, 1988). The cells were then assayed within 1-2 h for their ability to enzymatically reduce MTT, which under conditions of high succinate becomes a specific indicator of complex II/SDH-dependent activity (Maehara et al, 1988, Berridge and Tan, 1993).

B16(F10) = conditions: He et al, 1997, cited from earlier work; for IC50: B16(F10)

T2 sequence (Q8K2B3 43-664): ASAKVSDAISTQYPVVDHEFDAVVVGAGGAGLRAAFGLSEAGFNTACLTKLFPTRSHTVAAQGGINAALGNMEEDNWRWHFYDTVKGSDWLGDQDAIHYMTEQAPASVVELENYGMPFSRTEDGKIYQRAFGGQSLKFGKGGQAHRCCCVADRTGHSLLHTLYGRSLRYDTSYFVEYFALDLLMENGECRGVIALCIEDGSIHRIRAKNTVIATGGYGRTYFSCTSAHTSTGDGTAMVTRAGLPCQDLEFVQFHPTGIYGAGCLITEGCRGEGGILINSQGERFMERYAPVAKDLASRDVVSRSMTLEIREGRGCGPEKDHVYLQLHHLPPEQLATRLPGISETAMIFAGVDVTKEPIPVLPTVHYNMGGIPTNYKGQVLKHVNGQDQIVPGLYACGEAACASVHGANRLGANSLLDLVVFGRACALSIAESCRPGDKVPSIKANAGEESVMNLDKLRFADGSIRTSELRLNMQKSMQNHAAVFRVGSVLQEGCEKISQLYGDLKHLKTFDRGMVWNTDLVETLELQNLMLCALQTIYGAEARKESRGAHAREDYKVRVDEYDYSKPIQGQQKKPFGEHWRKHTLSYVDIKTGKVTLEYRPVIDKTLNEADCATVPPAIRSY
T2 sequence (Q9CQA3 31-282): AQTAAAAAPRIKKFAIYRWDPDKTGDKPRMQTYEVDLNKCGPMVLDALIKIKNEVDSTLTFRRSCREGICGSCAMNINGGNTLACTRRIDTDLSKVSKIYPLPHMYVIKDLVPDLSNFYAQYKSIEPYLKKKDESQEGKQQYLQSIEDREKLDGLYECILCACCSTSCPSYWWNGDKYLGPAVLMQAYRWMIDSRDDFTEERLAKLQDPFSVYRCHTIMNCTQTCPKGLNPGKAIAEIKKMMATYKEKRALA
T2 sequence (Q9CZB0 30-169): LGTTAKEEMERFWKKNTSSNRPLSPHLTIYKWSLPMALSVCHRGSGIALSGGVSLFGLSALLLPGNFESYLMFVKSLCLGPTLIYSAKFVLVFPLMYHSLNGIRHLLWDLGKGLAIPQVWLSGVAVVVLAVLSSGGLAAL
T2 sequence (Q9CXV1 57-159): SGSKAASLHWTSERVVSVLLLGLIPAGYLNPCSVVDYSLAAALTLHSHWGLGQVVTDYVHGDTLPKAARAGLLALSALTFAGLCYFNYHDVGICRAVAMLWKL

For `Cc1cc(NC(=O)C=CC(=O)O)cc2c1OC(C)(CCCC(C)CCCC(C)CCCC(C)C)CC2` (stereo not shown) [Compound 38], the IC50 (Jurkat, U937, Meso-2) is given as 9 µM and the “pro-apoptotic activity” value (Jurkat, U937, Meso-2) is given as “further enhancement of pro-apoptotic activity”.
For `Cc1c(C)c2c(c(C)c1OC(=O)C(N)CCCCN)CCC(C)(CO)O2` (stereo not shown) [Compound 47], the IC50 (MCF7) is listed as 194 µM.
For `Nc1ccn([C@@H]2O[C@H](CO)[C@@H](O)C2(F)F)c(=O)n1` [Gemcitabine, reference compound], the “toxicity of other therapies (medical history)” value (“toxicity of other therapies” for short) (mesothelioma) was “unacceptable levels of toxicity”.
In the case of `Cc1cc(O)c(C)c2c1O[C@](C)(CCC[C@H](C)CCC[C@H](C)CCCC(C)C)CC2` [β-tocopherol], the “relative affinities for α-TTP” value [1] is listed as 38%.
With `Oc1ccc(C2=Cc3ccc(O)cc3OC2)cc1` [phenoxodiol, reference compound] the “toxicity of other therapies” value (mesothelioma) was “ongoing severe neuropathy”.
In the case of `Cc1c(C)c2c(c(C)c1OC(=O)C=CC(=O)O)CCC(C)(CCCC(C)CCCC(C)CCCC(C)C)O2` (stereo not drawn) [Compound 3, α-tocopheryl maleate], the “pro-apoptotic activity” value [2] is given as “Even greater pro-apoptotic activity” and the IC50 [2] is given as 22 µM.
In the case of `O=C(O)CC[N+](=O)[O-]` [Compound 3NPA, 3-nitropropionic acid], the “complex II-mediated MTT reduction” value [3] is reported as “potent inhibitors of the complex II-mediated MTT reduction”.
For `CCC1=C[C@@H]2CN(C1)Cc1c([nH]c3ccccc13)[C@@](C(=O)OC)(c1cc3c(cc1OC)N(C)[C@H]1[C@@](O)(C(=O)OC)[C@H](OC(C)=O)[C@]4(CC)C=CCN5CC[C@]31[C@@H]54)C2` [Vinorelbine, reference compound], the “toxicity of other therapies” value (mesothelioma) was “severe exacerbation of peripheral neuropathy”.
For `Cc1c(C)c2c(c(C)c1NC(=O)CCC(=O)O)CCC(C)(CCCC(C)CCCC(C)CCCC(C)C)O2` (stereo not shown) [Compound 12], the IC50 (Jurkat, U937, Meso-2) is listed as 13 µM and the “pro-apoptotic activity” value (Jurkat, U937, Meso-2) is listed as “further enhancement of pro-apoptotic activity”.
For `Cc1c(O)cc2c(c1C)O[C@](C)(CCC[C@H](C)CCC[C@H](C)CCCC(C)C)CC2` [γ-tocopherol], the “relative affinities for α-TTP” value [1] is listed as 9%.
In the case of `Cc1c(C)c2c(c(C)c1O)CC[C@@](C)(CCC[C@H](C)CCC[C@H](C)CCCC(C)C)O2` [α-tocopherol], the “relative affinities for α-TTP” value [1] is given as 100%.
For `COC(=O)CCC(=O)Oc1c(C)c(C)c2c(c1C)CCC(C)(CCCC(C)CCCC(C)CCCC(C)C)O2` (stereo not shown) [Compound 9], the “pro-apoptotic activity” value [2] is listed as “without pro-apoptotic activity”.
For `CCCCC(=O)OCC1(C)CCc2c(C)c(OC(=O)C(N)CCCCN)c(C)c(C)c2O1` (stereo not shown) [Compound 49], the IC50 (MCF7) is listed as 15 µM.
For `Cc1cc(OC(=O)CCC(=O)O)cc2c1OC(C)(CCCC(C)CCCC(C)CCCC(C)C)CC2` (stereo not shown) [Compound 35], the “pro-apoptotic activity” value [2] is listed as “least effective” and the IC50 [2] is listed as 66 µM.
In the case of `Cc1c(C)c2c(c(C)c1OC(=O)CCCC(=O)O)CCC(C)(CCCC(C)CCCC(C)CCCC(C)C)O2` (stereo not shown) [Compound 5], the “pro-apoptotic activity” value [2] is listed as “decreased activity”.
In the case of `COC(=O)CCC(=O)Nc1c(C)c(C)c2c(c1C)CCC(C)(CCCC(C)CCCC(C)CCCC(C)C)O2` (stereo not shown) [Compound 14], the IC50 (Jurkat, U937, Meso-2) is given as > 100 µM.
For `CC(C)=CCC/C(C)=C/CC/C(C)=C/CCC1(C)CCc2cc(O)ccc2O1` (stereo not shown) [Compound 60, desmethyl tocotrienol], the IC50 (B16(F10)) is listed as 0.9 µM.
In the case of `Cc1c(C)c2c(c(C)c1OC(=O)CC(C)CC(=O)O)CCC(C)(CCCC(C)CCCC(C)CCCC(C)C)O2` (stereo not shown) [Compound 6], the “pro-apoptotic activity” value [2] is given as “decreased activity”.
For `CCCCCOCC1(C)CCc2c(C)c(OC(=O)C(N)CCCCN)c(C)c(C)c2O1` (stereo not shown) [Compound 48], the IC50 (MCF7) is given as 22 µM.
For `Cc1cc(NC(=O)CCC(=O)O)cc2c1OC(C)(CCCC(C)CCCC(C)CCCC(C)C)CC2` (stereo not shown) [Compound 37], the IC50 (Jurkat, U937, Meso-2) is listed as 20 µM and the “pro-apoptotic activity” value (Jurkat, U937, Meso-2) is listed as “further enhancement of pro-apoptotic activity”.
For `Cc1c(C)c2c(c(C)c1NC(=O)C=CC(=O)O)CCC(C)(CCCC(C)CCCC(C)CCCC(C)C)O2` (stereo not shown) [Compound 13], the IC50 (Jurkat, U937, Meso-2) is listed as 2 µM and the “pro-apoptotic activity” value (Jurkat, U937, Meso-2) is listed as “further enhancement of pro-apoptotic activity”.
For `Cc1c(C)c2c(c(C)c1CC(=O)O)CCC(C)(CCCC(C)CCCC(C)CCCC(C)C)O2` (stereo not shown) [Compound 22], the “EC50 [μg/ml]” value (MCF7; Shiau et al, 2006, footnote g) is listed as 15-20^g μg/ml.
For `Cc1cc(O)cc2c1O[C@](C)(CCC[C@H](C)CCC[C@H](C)CCCC(C)C)CC2` [δ-tocopherol], the “relative affinities for α-TTP” value [1] is listed as 2%.
In the case of `Cc1c(C)c2c(c(C)c1OC(=O)CC(C)(C)CC(=O)O)CCC(C)(CCCC(C)CCCC(C)CCCC(C)C)O2` (stereo not shown) [Compound 7], the “pro-apoptotic activity” value [2] is listed as “decreased activity”.
For `Cc1cc(OC(=O)C=CC(=O)O)cc2c1OC(C)(CCCC(C)CCCC(C)CCCC(C)C)CC2` (stereo not shown) [Compound 36], the IC50 (Jurkat, U937, Meso-2) is listed as 49 µM.
For `CC(C)=CCC/C(C)=C/CC/C(C)=C/CC[C@]1(C)CCc2cc(O)cc(C)c2O1` [Compound 59, δ-tocotrienol], the IC50 (B16(F10)) is given as 10 µM and the “potency in the murine B16-F10 melanoma cell model” value (B16(F10)) is given as “most potent agent”.
In the case of `Cc1c(C)c2c(c(C)c1OC(=O)C(N)CCCCN)CCC(C)(CCCC(C)CCCC(C)CCCC(C)C)O2` (stereo not shown) [Compound 16], the IC50 (MCF7) is listed as 12 µM.
